Test results as given in patent US9409905B2, “Antibacterial compounds and methods for use” (PTC THERAPEUTICS, INC., priority 2011, dated 2016).
Values after ≈ are worked out from the molar mass of the structure shown.

Legend:
[1] = system: Escherichia coli (E. coli) BAS849; assay: Antibacterial activity, microbroth dilution MIC (Table 1); format: cell-based; settings: microbroth dilution, super sensitive Gram-negative E. coli BAS849, read-out: MIC, BAS849
Method in brief: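 MIC (μg/mL) is taken as the lowest concentration with no macroscopically visible growth. Strains tested by microbroth dilution: Gram-positive S. aureus 29213, control Gram-negative E. coli 25922, and super-sensitive E. coli BAS849.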

[2] = system: Staphylococcus aureus (S. aureus) 29213; assay: as above; format: cell-based; settings: microbroth dilution, Gram-positive S. aureus 29213, read-out: MIC, 29213
Method in brief: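 Potency is reported as minimum inhibitory concentration in μg/mL, determined by broth microdilution as the lowest level of compound that stops growth visible to the eye.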

E. coli 25922 = assay: as above; format: cell-based, Escherichia coli; settings: Escherichia coli; microbroth dilution; control Gram-negative E. coli 25922 strain; read-out: MIC, 25922
Method in brief: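 MIC (μg/mL) read as lowest concentration with no macroscopically visible growth; microbroth dilution format. E. coli 25922 served as control Gram-negative strain.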

E. coli LZ3111 = assay: Antibacterial activity, MIC, quinolone resistant strain (Table 2); format: cell-based; settings: Escherichia coli, LZ3111, read-out: MIC LZ3111
Method in brief: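 Broth microdilution. Read-out: MIC in μg/mL, taken as lowest concentration with no macroscopically visible growth.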

[3] = system: Acinetobacter baumannii (A. baumannii) BAA747; assay: Antibacterial activity, MIC (Table 4); format: cell-based; settings: A. baumannii BAA747, read-out: MIC, BAA747
Method in brief: (§1)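 Compounds are serially diluted in microbroth, bacteria are grown under the test conditions, and growth is then inspected macroscopically. The lowest concentration without visible growth is reported as the MIC (μg/mL).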

[4] = system: Klebsiella pneumoniae (K. pneumoniae) 35657; assay: Antibacterial activity, MIC (Table 4); format: cell-based; settings: K. pneumoniae 35657, read-out: MIC, 35657
Method in brief: as §1

A. baumannii MXX2240 = assay: Antibacterial activity, MIC, resistant strain (Table 4); format: cell-based; settings: Acinetobacter baumannii, MXX2240; resistant A. baumannii MMX2240, multi-drug resistant clinical isolate; read-out: MIC, MMX2240
Method in brief: as §1

K. pneumoniae MXX1232 = assay: as above; format: cell-based; settings: Klebsiella pneumoniae, MXX1232; resistant K. pneumoniae MMX1232, multi-drug resistant clinical isolate; read-out: MIC, MMX1232
Method in brief: as §1

[5] = system: Pseudomonas aeruginosa (P. aeruginosa) 27853; assay: Antibacterial activity, MIC (Table 5); format: cell-based; settings: P. aeruginosa 27853, read-out: MIC, 27853
Method in brief: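 Microbroth dilution; MIC (μg/mL) = lowest concentration with no macroscopically visible growth.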

Row | Structure (SMILES) | MIC [1] [µg/mL] | MIC [2] [µg/mL] | MIC (E. coli 25922) [µg/mL] | MIC (E. coli LZ3111) [µg/mL] | MIC [3] [µg/mL] | MIC [4] [µg/mL] | MIC (A. baumannii MXX2240) [µg/mL] | MIC (K. pneumoniae MXX1232) [µg/mL] | MIC [5] [µg/mL]
1 | Cc1c(-c2ccc3cn[nH]c3c2)[nH]c(=O)c(C(=O)O)c1O [Cpd 399, 4-hydroxy-6-(1H-indazol-6-yl)-5-methyl-2-oxo-1,2-dihydropyridine-3-carboxylic acid] | 12.5 to 150 (≈ 43.8 to 526 µM) | 12.5 to 150 (≈ 43.8 to 526 µM) | 12.5 to 150 (≈ 43.8 to 526 µM) | 12.5 to 150 (≈ 43.8 to 526 µM) | 12.5 to 150 (≈ 43.8 to 526 µM) | 12.5 to 150 (≈ 43.8 to 526 µM) | 12.5 to 150 (≈ 43.8 to 526 µM) | 12.5 to 150 (≈ 43.8 to 526 µM) | 12.5 to 150 (≈ 43.8 to 526 µM)
2 | CCc1c(-c2cn3ccccc3n2)[nH]c(=O)c(C(=O)O)c1O [Cpd 400, 5-ethyl-4-hydroxy-6-(imidazo[1,2-a]pyridin-2-yl)-2-oxo-1,2-dihydropyridine-3-carboxylic acid] | 1 to 3.5 (≈ 3.34 to 11.7 µM) | 12.5 to 150 (≈ 41.8 to 501 µM) | 12.5 to 150 (≈ 41.8 to 501 µM) | 12.5 to 150 (≈ 41.8 to 501 µM) | 12.5 to 150 (≈ 41.8 to 501 µM) | 12.5 to 150 (≈ 41.8 to 501 µM) | 12.5 to 150 (≈ 41.8 to 501 µM) | 12.5 to 150 (≈ 41.8 to 501 µM) | 12.5 to 150 (≈ 41.8 to 501 µM)
3 | CCc1c(-c2cc3c(N(C)C)nc(C)cn3n2)[nH]c(=O)c(C(=O)O)c1O [Cpd 401, 6-(4-(dimethylamino)-6-methylpyrazolo[1,5-a]pyrazin-2-yl)-5-ethyl-4-hydroxy-2-oxo-1,2-dihydropyridine-3-carboxylic acid] | 3.5 to 12.5 (≈ 9.79 to 35 µM) | 3.5 to 12.5 (≈ 9.79 to 35 µM) | 12.5 to 150 (≈ 35 to 420 µM) | 12.5 to 150 (≈ 35 to 420 µM) | 12.5 to 150 (≈ 35 to 420 µM) | 12.5 to 150 (≈ 35 to 420 µM) | 12.5 to 150 (≈ 35 to 420 µM) | 12.5 to 150 (≈ 35 to 420 µM) | 12.5 to 150 (≈ 35 to 420 µM)
4 | CCc1c(-c2cc3c(N4CCCC4)nc(C)cn3n2)[nH]c(=O)c(C(=O)O)c1O [Cpd 402, 5-ethyl-4-hydroxy-6-(6-methyl-4-(pyrrolidin-1-yl)pyrazolo[1,5-a]pyrazin-2-yl)-2-oxo-1,2-dihydropyridine-3-carboxylic acid] | 12.5 to 150 (≈ 32.6 to 391 µM) | 3.5 to 12.5 (≈ 9.13 to 32.6 µM) | 12.5 to 150 (≈ 32.6 to 391 µM) | 12.5 to 150 (≈ 32.6 to 391 µM) | 12.5 to 150 (≈ 32.6 to 391 µM) | 12.5 to 150 (≈ 32.6 to 391 µM) | 12.5 to 150 (≈ 32.6 to 391 µM) | 12.5 to 150 (≈ 32.6 to 391 µM) | 12.5 to 150 (≈ 32.6 to 391 µM)
5 | CCc1c(-c2cccc3c2ccn3C)[nH]c(=O)c(C(=O)O)c1O [Cpd 403, 5-ethyl-4-hydroxy-6-(1-methyl-1H-indol-4-yl)-2-oxo-1,2-dihydropyridine-3-carboxylic acid] | 3.5 to 12.5 (≈ 11.2 to 40 µM) | 12.5 to 150 (≈ 40 to 480 µM) | 12.5 to 150 (≈ 40 to 480 µM) | 12.5 to 150 (≈ 40 to 480 µM) | 12.5 to 150 (≈ 40 to 480 µM) | 12.5 to 150 (≈ 40 to 480 µM) | 12.5 to 150 (≈ 40 to 480 µM) | 12.5 to 150 (≈ 40 to 480 µM) | 12.5 to 150 (≈ 40 to 480 µM)
6 | Cc1c(-c2cccc3c2ccn3C)[nH]c(=O)c(C(=O)O)c1O [Cpd 404, 4-hydroxy-5-methyl-6-(1-methyl-1H-indol-4-yl)-2-oxo-1,2-dihydropyridine-3-carboxylic acid] | 3.5 to 12.5 (≈ 11.7 to 41.9 µM) | 12.5 to 150 (≈ 41.9 to 503 µM) | 12.5 to 150 (≈ 41.9 to 503 µM) | 12.5 to 150 (≈ 41.9 to 503 µM) | 12.5 to 150 (≈ 41.9 to 503 µM) | 12.5 to 150 (≈ 41.9 to 503 µM) | 12.5 to 150 (≈ 41.9 to 503 µM) | 12.5 to 150 (≈ 41.9 to 503 µM) | 12.5 to 150 (≈ 41.9 to 503 µM)
7 | CCc1c(-c2cc3ccc(OC)cc3n2C)[nH]c(=O)c(C(=O)O)c1O [Cpd 405, 5-ethyl-4-hydroxy-6-(6-methoxy-1-methyl-1H-indol-2-yl)-2-oxo-1,2-dihydropyridine-3-carboxylic acid] | 3.5 to 12.5 (≈ 10.2 to 36.5 µM) | 3.5 to 12.5 (≈ 10.2 to 36.5 µM) | 12.5 to 150 (≈ 36.5 to 438 µM) | 12.5 to 150 (≈ 36.5 to 438 µM) | 12.5 to 150 (≈ 36.5 to 438 µM) | 12.5 to 150 (≈ 36.5 to 438 µM) | 12.5 to 150 (≈ 36.5 to 438 µM) | 12.5 to 150 (≈ 36.5 to 438 µM) | 12.5 to 150 (≈ 36.5 to 438 µM)
8 | CCc1c(-c2cc3cc(F)ccc3n2C)[nH]c(=O)c(C(=O)O)c1O [Cpd 406, 5-ethyl-6-(5-fluoro-1-methyl-1H-indol-2-yl)-4-hydroxy-2-oxo-1,2-dihydropyridine-3-carboxylic acid] | 1 to 3.5 (≈ 3.03 to 10.6 µM) | 3.5 to 12.5 (≈ 10.6 to 37.8 µM) | 12.5 to 150 (≈ 37.8 to 454 µM) | 12.5 to 150 (≈ 37.8 to 454 µM) | 12.5 to 150 (≈ 37.8 to 454 µM) | 12.5 to 150 (≈ 37.8 to 454 µM) | 12.5 to 150 (≈ 37.8 to 454 µM) | 12.5 to 150 (≈ 37.8 to 454 µM) | 12.5 to 150 (≈ 37.8 to 454 µM)
9 | CCc1ccc2c(c1)cc(-c1[nH]c(=O)c(C(=O)O)c(O)c1CC)n2C [Cpd 407, 5-ethyl-6-(5-ethyl-1-methyl-1H-indol-2-yl)-4-hydroxy-2-oxo-1,2-dihydropyridine-3-carboxylic acid] | 1 to 3.5 (≈ 2.94 to 10.3 µM) | 1 to 3.5 (≈ 2.94 to 10.3 µM) | 12.5 to 150 (≈ 36.7 to 441 µM) | 12.5 to 150 (≈ 36.7 to 441 µM) | 12.5 to 150 (≈ 36.7 to 441 µM) | 12.5 to 150 (≈ 36.7 to 441 µM) | 12.5 to 150 (≈ 36.7 to 441 µM) | 12.5 to 150 (≈ 36.7 to 441 µM) | 12.5 to 150 (≈ 36.7 to 441 µM)
10 | CCc1ccc2cc(-c3[nH]c(=O)c(C(=O)O)c(O)c3CC)n(C)c2c1 [Cpd 408, 5-ethyl-6-(6-ethyl-1-methyl-1H-indol-2-yl)-4-hydroxy-2-oxo-1,2-dihydropyridine-3-carboxylic acid] | 1 to 3.5 (≈ 2.94 to 10.3 µM) | 1 to 3.5 (≈ 2.94 to 10.3 µM) | 12.5 to 150 (≈ 36.7 to 441 µM) | 12.5 to 150 (≈ 36.7 to 441 µM) | 12.5 to 150 (≈ 36.7 to 441 µM) | 12.5 to 150 (≈ 36.7 to 441 µM) | 12.5 to 150 (≈ 36.7 to 441 µM) | 12.5 to 150 (≈ 36.7 to 441 µM) | 12.5 to 150 (≈ 36.7 to 441 µM)
11 | CCCc1ccc2c(c1)cc(-c1[nH]c(=O)c(C(=O)O)c(O)c1CC)n2C [Cpd 409, 5-ethyl-4-hydroxy-6-(1-methyl-5-propyl-1H-indol-2-yl)-2-oxo-1,2-dihydropyridine-3-carboxylic acid] | 1 to 3.5 (≈ 2.82 to 9.88 µM) | 3.5 to 12.5 (≈ 9.88 to 35.3 µM) | 12.5 to 150 (≈ 35.3 to 423 µM) | 12.5 to 150 (≈ 35.3 to 423 µM) | 12.5 to 150 (≈ 35.3 to 423 µM) | 12.5 to 150 (≈ 35.3 to 423 µM) | 12.5 to 150 (≈ 35.3 to 423 µM) | 12.5 to 150 (≈ 35.3 to 423 µM) | 12.5 to 150 (≈ 35.3 to 423 µM)
12 | CCCc1ccc2cc(-c3[nH]c(=O)c(C(=O)O)c(O)c3CC)n(C)c2c1 [Cpd 410, 5-ethyl-4-hydroxy-6-(1-methyl-6-propyl-1H-indol-2-yl)-2-oxo-1,2-dihydropyridine-3-carboxylic acid] | 1 to 3.5 (≈ 2.82 to 9.88 µM) | 3.5 to 12.5 (≈ 9.88 to 35.3 µM) | 12.5 to 150 (≈ 35.3 to 423 µM) | 12.5 to 150 (≈ 35.3 to 423 µM) | 12.5 to 150 (≈ 35.3 to 423 µM) | 12.5 to 150 (≈ 35.3 to 423 µM) | 12.5 to 150 (≈ 35.3 to 423 µM) | 12.5 to 150 (≈ 35.3 to 423 µM) | 12.5 to 150 (≈ 35.3 to 423 µM)
